Experimental findings from paper PMC10569896, “Molecular Investigation of the Antitumor Effects of Monoamine Oxidase Inhibitors in Breast Cancer Cells” (BioMed Research International, 2023) are described below.

In one assay the test system is MDA-MB-231. In words: cells. Also on record: MTT cell viability assay, antiproliferative IC50 in MDA-MB-231 breast cancer cells. The following applies: Homo sapiens, MDA-MB-231, 48 h. The method, then: (§1) To assess the effect of MAO-AIs on the survival and proliferation of breast cancer cells, MTT colorimetric analysis was performed as previously described. MDA-MB-231 and T47D cells were seeded into a 96-well plate, at a different seeding density per well depending on proliferation ability, doubling time, and target time of treatment. Then, cells were maintained at 37°C in a humidified 5% CO2 atmosphere. Cell viability was calculated as follows: cell viability (%) = [(optical density of viable cells in the test group)/optical density of viable cells in the negative control group] × 100%. Experiments were run at least 2-3 times independently. […] The ratio of IC50 for each drug alone guided the selection of an appropriate combination ratio. As described earlier, the MTT test was used to determine cell viability after treatment time elapsed (48 hours). CompuSyn software (ComboSyn Inc., Paramus, NJ, USA) was used to determine the combination index (CI), which is based on Chou-Talalay's combination index theorem, and its formula is the sum of the ratio of the dose of each drug in the compound to the dose when used alone when the combination and compound produce 50% efficacy. CI values < 1, =1, and > 1 indicate synergism, additive, and antagonistic effects, respectively, as shown in Equation (1). In this study, MTT assay was performed after exposing MDA-MB-231 and T-47d cell lines to increasing concentrations of MAO-A inhibitors for either 24, 48, or 72 h. […] Breast cancer cell lines, T-47D and MDA-MB-231 cells, were purchased from American Type Culture Collection (ATCC, USA). Cells were cultured in DMEM high glucose culture medium supplemented with 10% fetal bovine serum (FBS), 2 mM L-glutamine, 100 U/mL penicillin, and 0.1 mg/mL streptomycin. Cells were maintained in a humidified controlled temperature incubator set at 37°C, 95% humidity, and 5% CO2.

Another assay has as its system T-47D. In words: cells. On the set-up: MTT cell viability assay, antiproliferative IC50 in T-47D breast cancer cells. The following applies: Homo sapiens, T47D, 48 h. How it is done:
as §1

A word on the IC50: it is the concentration at which inhibition is half-maximal. Regarding `COc1cccc2c1C(=O)c1c(O)c3c(c(O)c1C2=O)C[C@@](O)(C(=O)CO)C[C@@H]3O[C@H]1C[C@H](N)[C@H](O)[C@H](C)O1` [Doxorubicin], the values for the IC50 with MDA-MB-231 and in the assay on T-47D were 2 µM and 2.2 µM, respectively.

For `C#CCN(C)CCCOc1ccc(Cl)cc1Cl` [J19, clorgyline], the IC50 turned out to be 163 µM in the assay on MDA-MB-231 and 157 µM in the assay with T-47D.

For the molecule `O=C(c1ccc(OCCN2CCCCC2)cc1)c1c(-c2ccc(O)cc2)sc2cc(O)ccc12` [Raloxifene], the IC50 worked out at 27 µM with MDA-MB-231 and 28 µM in the assay on T-47D.
